Test results taken from ChEMBL document CHEMBL1201862, “PubChem BioAssay data set” (2004).
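Results reflect a 48-hour exposure of cells in 96-well plates to compound at five concentrations. GI50: concentration for 50% inhibition of growth.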 Activity calls are given as the source filed them. Cut-off read from the data, not from the text of the source: active = GI50 up to about 1.1 µM and inactive = higher.

Experiments:
Test in all cases: growth of human tumour cells (NCI), 48 h
[1] = tested on: HOP-92
[2] = tested on: UO-31
[3] = tested on: K562
[4] = tested on: SK-MEL-28
[5] = tested on: KM12
[6] = tested on: OVCAR-5
[7] = tested on: HT-29
[8] = tested on: PC-3
[9] = tested on: MDA-MB-435
[10] = tested on: MCF7
[11] = tested on: U-251
[12] = tested on: SNB-75
[13] = tested on: SK-MEL-5
[14] = tested on: MDA-MB-231
[15] = tested on: IGROV-1
[16] = tested on: SW-620
[17] = tested on: COLO 205
[18] = tested on: MDA-N
[19] = tested on: SK-OV-3

Row | SMILES | GI50 [1] | GI50 [2] | GI50 [3] | GI50 [4] | GI50 [5] | GI50 [6] | GI50 [7] | GI50 [8] | GI50 [9] | GI50 [10] | GI50 [11] | GI50 [12] | GI50 [13] | GI50 [14] | GI50 [15] | GI50 [16] | GI50 [17] | GI50 [18] | GI50 [19]
1 | O=C1N2CCN=C2c2ccccc2C1(O)c1ccccc1 (stereo not drawn) | > 100 µM (inactive) | > 100 µM (inactive) | > 100 µM (inactive) | > 100 µM (inactive) | > 100 µM (inactive) | > 100 µM (inactive) | > 100 µM (inactive) | > 100 µM (inactive) | > 100 µM (inactive) | > 100 µM (inactive) | > 100 µM (inactive) | > 100 µM (inactive) | > 100 µM (inactive) | > 100 µM (inactive) | > 100 µM (inactive) | > 100 µM (inactive) | > 100 µM (inactive) | > 100 µM (inactive) | 
2 | Fc1ccc(C(OCCN2CCC3CCC(C2)N3C/C=C/c2cccnc2)c2ccc(F)cc2)cc1 (stereo not drawn) | 13.4 µM (inactive) | 1.88 µM (inactive) |  | 2.24 µM (inactive) | 10.5 µM (inactive) | 13.8 µM (inactive) | 3.44 µM (inactive) | 9.93 µM (inactive) | 11.1 µM (inactive) | 11 µM (inactive) | 11.9 µM (inactive) | 14.2 µM (inactive) | 4.01 µM (inactive) | 13.3 µM (inactive) | 13.3 µM (inactive) | 10.1 µM (inactive) | 1.3 µM (inactive) | 11.6 µM (inactive) | 14.7 µM (inactive)
3 | Cc1ccc([S+]([O-])(=Nc2ccccc2)C(C(C)C)C(C)(C)Cl)cc1 (stereo not drawn) | 30.1 µM (inactive) | 18.8 µM (inactive) | 16.7 µM (inactive) |  | 13.5 µM (inactive) | 22.1 µM (inactive) | 17.1 µM (inactive) | 16.1 µM (inactive) | 10.7 µM (inactive) | 20.6 µM (inactive) | 16.7 µM (inactive) | > 50 µM (inactive) | 4.06 µM (inactive) | 17.2 µM (inactive) | > 50 µM (inactive) | 20.9 µM (inactive) | 0.91 µM (active) | 16 µM (inactive) | > 50 µM (inactive)
4 | O=C(CCCCCCCCC(=O)NN1C(=O)/C(=C\c2ccc(O)c(O)c2)SC1c1c(O)ccc2ccccc12)NN1C(=O)C(=Cc2ccc(O)c(O)c2)SC1c1c(O)ccc2ccccc12 (stereo not drawn) | 8.47 µM (inactive) | 3.39 µM (inactive) | 5.64 µM (inactive) | 10 µM (inactive) | 23.9 µM (inactive) | > 49.5 µM (inactive) | 10.8 µM (inactive) | 10.9 µM (inactive) | > 27.2 µM (inactive) | 10.1 µM (inactive) | 12.5 µM (inactive) | 60.4 µM (inactive) | 1.93 µM (inactive) | > 23.8 µM (inactive) | 8.51 µM (inactive) | 7.64 µM (inactive) | 20.4 µM (inactive) | > 41.7 µM (inactive) | 6.28 µM (inactive)
5 | Cc1ccc(-c2c(C#N)c(-c3ccc(Cl)cc3)c(C#N)c(=O)n2NS(=O)(=O)c2ccc(C)cc2)cc1 | 19.5 µM (inactive) |  | 33.9 µM (inactive) | 30.3 µM (inactive) | 22.5 µM (inactive) | 43.3 µM (inactive) | 37.2 µM (inactive) | 17.4 µM (inactive) | 30.6 µM (inactive) | 15.2 µM (inactive) | 36.2 µM (inactive) | 30.1 µM (inactive) | 23.1 µM (inactive) | 38.5 µM (inactive) | 29.2 µM (inactive) | 35.8 µM (inactive) | 42.1 µM (inactive) | 43.8 µM (inactive) | 22.1 µM (inactive)
6 | CC[N+]1(C)CCC(O)(/C=C/c2ccc(OC)cc2)C(C(=O)/C=C/c2ccc(OC)cc2)C1 (stereo not drawn) | 15.5 µM (inactive) | 12.6 µM (inactive) | 2.06 µM (inactive) | 15.3 µM (inactive) | 4.13 µM (inactive) | 21.2 µM (inactive) | 13.2 µM (inactive) | 20.1 µM (inactive) | 12.5 µM (inactive) | 4.29 µM (inactive) | 15.6 µM (inactive) | 18.9 µM (inactive) | 14.7 µM (inactive) | 23.9 µM (inactive) | 21.8 µM (inactive) | 2.7 µM (inactive) | 2.58 µM (inactive) | 12.3 µM (inactive) | 19.1 µM (inactive)
7 | NS(=O)(=O)c1ccc(NCc2nc3ccccc3[nH]2)cc1 | > 100 µM (inactive) | > 100 µM (inactive) |  |  | > 100 µM (inactive) | > 100 µM (inactive) | > 100 µM (inactive) | > 100 µM (inactive) | > 100 µM (inactive) | > 100 µM (inactive) | > 100 µM (inactive) | > 100 µM (inactive) | > 100 µM (inactive) | > 100 µM (inactive) | > 100 µM (inactive) |  | > 100 µM (inactive) | > 100 µM (inactive) | > 100 µM (inactive)
8 | CCN(CC)C1C(=O)NC1C#Cc1ccccc1 (stereo not drawn) | 18.9 µM (inactive) | > 100 µM (inactive) | 42.3 µM (inactive) | > 100 µM (inactive) | > 100 µM (inactive) | > 100 µM (inactive) | 48 µM (inactive) | > 100 µM (inactive) | 40.8 µM (inactive) | 49.2 µM (inactive) | > 100 µM (inactive) | > 100 µM (inactive) | 26.4 µM (inactive) | > 100 µM (inactive) | 67.5 µM (inactive) | 69.5 µM (inactive) | > 100 µM (inactive) | 57.3 µM (inactive) | > 100 µM (inactive)
9 | COC(=O)CN(CC(O)C(NC(C)=O)C(O)C=O)C(=O)OCc1ccccc1 (stereo not drawn) | > 100 µM (inactive) | > 100 µM (inactive) | > 100 µM (inactive) | > 100 µM (inactive) | > 100 µM (inactive) | > 100 µM (inactive) | > 100 µM (inactive) | > 100 µM (inactive) | > 100 µM (inactive) | > 100 µM (inactive) | > 100 µM (inactive) | > 100 µM (inactive) | > 100 µM (inactive) | > 100 µM (inactive) | > 100 µM (inactive) | > 100 µM (inactive) | > 100 µM (inactive) | > 100 µM (inactive) | > 100 µM (inactive)
10 | CC(=O)Oc1ccn2nc(C)c(Br)c2c1 | > 87.1 µM (inactive) |  | 39.2 µM (inactive) | > 100 µM (inactive) | > 100 µM (inactive) | > 100 µM (inactive) | 53.3 µM (inactive) | > 53.6 µM (inactive) | 31.8 µM (inactive) | 47.8 µM (inactive) | 97.7 µM (inactive) | > 44.1 µM (inactive) | 42.6 µM (inactive) | > 81.3 µM (inactive) | > 100 µM (inactive) | > 100 µM (inactive) | 25.6 µM (inactive) | 49.3 µM (inactive) | 
11 | N#Cc1cc2c(n(C3OC(CO)C(O)C(O)C3O)c1=S)CCCCCC2 (stereo not drawn) | > 100 µM (inactive) | > 100 µM (inactive) | > 100 µM (inactive) | > 100 µM (inactive) | > 100 µM (inactive) | > 100 µM (inactive) | > 100 µM (inactive) | > 100 µM (inactive) | > 100 µM (inactive) | > 100 µM (inactive) | > 100 µM (inactive) | > 100 µM (inactive) | > 100 µM (inactive) | > 100 µM (inactive) | > 100 µM (inactive) | > 100 µM (inactive) | > 100 µM (inactive) | > 100 µM (inactive) | 
12 | C(=C/c1nnnn1-c1ccccc1)/Nc1ccccc1 | 24.4 µM (inactive) | 20.6 µM (inactive) | 20.7 µM (inactive) | 78.7 µM (inactive) | 31.6 µM (inactive) | 24.8 µM (inactive) | 28.2 µM (inactive) | 27.2 µM (inactive) | 26.1 µM (inactive) | 19.3 µM (inactive) | 27.9 µM (inactive) | 27.5 µM (inactive) | 14.5 µM (inactive) | 39 µM (inactive) | 35.2 µM (inactive) | 37.3 µM (inactive) | 33.7 µM (inactive) | 22 µM (inactive) | 36.2 µM (inactive)
13 | Cc1ccc(C(=O)c2[nH]c(Nc3ccc(Cl)cc3)c(C(=S)Nc3ccccc3)c2N)cc1 | 12.9 µM (inactive) | 9.14 µM (inactive) | 7.38 µM (inactive) | 4.21 µM (inactive) | 5.26 µM (inactive) | 11 µM (inactive) | 4.43 µM (inactive) | 6.84 µM (inactive) | 6.68 µM (inactive) | 12.5 µM (inactive) | 3.01 µM (inactive) | 2.94 µM (inactive) |  | 10.1 µM (inactive) | 4.41 µM (inactive) | 11.5 µM (inactive) | 1.45 µM (inactive) | 6.73 µM (inactive) | 14.2 µM (inactive)
14 | N#Cc1nc(CCc2nc(C#N)c(N)o2)oc1N | > 10 µM (inactive) | > 10 µM (inactive) | > 10 µM (inactive) | > 10 µM (inactive) | > 10 µM (inactive) | > 10 µM (inactive) | > 10 µM (inactive) | > 10 µM (inactive) | > 10 µM (inactive) | > 10 µM (inactive) |  | > 10 µM (inactive) | > 10 µM (inactive) | > 10 µM (inactive) | > 10 µM (inactive) | > 10 µM (inactive) | > 10 µM (inactive) | > 10 µM (inactive) | > 10 µM (inactive)
15 | Clc1ccc(-c2cc3nc4ccccc4nc3o2)cc1 | 47.2 µM (inactive) | > 100 µM (inactive) | > 100 µM (inactive) | > 100 µM (inactive) | > 100 µM (inactive) | > 100 µM (inactive) | > 100 µM (inactive) | > 100 µM (inactive) | > 100 µM (inactive) | 64.4 µM (inactive) | 29.9 µM (inactive) | 15.3 µM (inactive) | > 100 µM (inactive) | > 100 µM (inactive) | 62.8 µM (inactive) | > 100 µM (inactive) | > 100 µM (inactive) | > 100 µM (inactive) | 59.4 µM (inactive)
